Reference: US5874469A, “Fluoroalkyl hydrocarbons for administering water insoluble or unstable drugs” (Alcon Laboratories, Inc., priority 1996, dated 1999)
≈ marks a conversion by molar mass, not a printed value.

Tests used:
physchem [1] = details: 12205-1 perfluoro ester, organic solvent or mixture
[2] = Storage stability (hydrolysis) of cabergoline in 12205-1, HPLC; assay type: physicochemical; details: room temperature, 40° C. and 50° C., FIG. 1b
Protocol: 0.0056 g of cabergoline was weighed in a vial. […] The mixture was vortexed well and then sonicated for 30 minutes. The suspension was filtered through a 0.2μ acrodisc. The filtrate was split into 3 vials. The vials were stored at room temperature ("RT"), 40° C. and 50° C. The vial stored at room temperature was wrapped in aluminum foil. 100 μL of sample was withdrawn as a function of time. 1 mL of pH 3.0 phosphate buffer was added to the sample and vortexed. The supernatant was taken and analyzed by HPLC as described above.

physchem [3] = details: organic solvent or mixture
Protocol: 0.00471 grams ("g") of cabergoline was added to 1 milliter ("mL") of perfluorooctanol (PFO). The suspension was sonicated for 15 minutes and then filtered through a 0.45μ filter. 100 microliters ("μL") of the filtrate was extracted with 1 mL of phosphate buffer (pH 3.0). 10 μL of the aqueous portion was analyzed for cabergoline by injecting in onto the HPLC. The mobile phase was made as follows:
5.2 mL of concentrated phosphoric acid, 6.0 mL of tetrabutyl ammonium hydroxide, and 6.612 g of dibasic ammonium phosphate were added to 1500 mL of deionized water. The mixture was stirred until it formed a clear solution. To the above solution 1800 mL of acetonitrile, 400 mL of tetrahydrofuran and sufficient water were added to make 4 liters of mobile phase. The mobile phase was pumped at 1.5 mL/minute through a cyano column. The eluent was monitored at 280 nanometers ("nm").
0.00126 g of cabergoline was added to 1 mL of perfluoro-2-methyl-oxahexanoic acid, methyl ester ("12205-1"). The suspension was sonicated for 15 minutes and then filtered through a 0.45μ filter. 100 μL of the filtrate was extracted with 1 mL of phosphate buffer (pH 3.0). 10 μL of the aqueous portion was analyzed for cabergoline by injecting it onto the HPLC.

[4] = Solubility of dipivefrin in 12205-1 (excess drug stirred 30 minutes, filtered, extracted with pH 3.0 phosphate buffer); assay type: physicochemical; details: 12205-1 perfluoro ester, organic solvent or mixture, vehicle 12205-1, excess dipivefrin alone, 0.2μ filter
Protocol: The solution was filtered through a 0.2μ filter and 100 μl of the sample was extracted with phosphate buffer (pH 3.0). The aqueous portion was analyzed for dipivefrin.

[5] = Solubility of betaxolol and dipivefrin, dissolved together, in 12205-1 (extraction into pH 3.0 phosphate buffer, reverse phase HPLC); details: 12205-1 perfluoro ester, organic solvent or mixture
[6] = Storage stability (hydrolysis) of leflunomide in 12205-1, HPLC; assay type: physicochemical; details: 60° C. in an oven, FIG. 2b
Protocol: The suspension was filtered and the filtrate was put on stability testing at 60° C. in an oven. 100 μL of sample was withdrawn as a function of time. The vehicle was evaporated and the residual sample was reconstituted in 1 mL of the mobile phase for leflunomide. The sample was analyzed by HPLC to determine the leflunomide content. […] The composition is therefore expected to be stable during storage.

physchem [7] = details: perfluorooctanol, organic solvent or mixture
Protocol: (§1) 0.01847 g of leflunomide was added to 1 mL of perfluorooctanol ("PFO"). The suspension was sonicated for 15 minutes. The suspension was filtered through a 0.45μ filter and 100 μL of the filtrate was extracted with 1 mL of the mobile phase for leflunomide. The mobile phase consisted of 40:60 of acetonitrile: 0.01m NaH2 PO4 adjusted to pH 7.0. 10 μL of the extract was injected on to a C-18 reverse phase column. The sample was eluted with the mobile phase with a flow rate of 2 mL/minute and monitored at 254 nm.
(§2) 0.00207 g of leflunomide was added to 1 mL of perfluoro-2-methyl-oxahexanoic acid, methyl ester (12205-1). The suspension was filtered through a 0.45μ filter and 100 μL of the filtrate was extracted with 1 mL of the mobile phase of leflunomide. 10 μL of the extract was injected on to HPLC to determine the solubility of leflunomide.

[8] = Solubility of leflunomide in fluoroalkyl hydrocarbon vehicle (filtration, extraction into mobile phase, HPLC); details: 12205-1 perfluoro ester, organic solvent or mixture
Protocol: as §1, §2

Question: For `CC(C)NCC(O)COc1ccc(CCOCC2CC2)cc1` (stereo not drawn) [betaxolol], which solubility (physchem [1]) is on record?
Answer: > 1000 µg/mL

Question: Which “hydrolysis of cabergoline on storage” value [2] does the source give for `C=CCN1C[C@H](C(=O)N(CCCN(C)C)C(=O)NCC)C[C@@H]2c3cccc4[nH]cc(c34)C[C@H]21` [cabergoline] here?
Answer: no hydrolysis

Question: What about the solubility (physchem [3]; 12205-1 perfluoro ester) of the same compound?
Answer: 1040 µg/mL (≈ 2290 µM)

Question: What about the solubility (physchem [3]; perfluorooctanol) of the same compound?
Answer: 2700 µg/mL (≈ 5980 µM)

Question: What does the source list for `CNCC(O)c1ccc(OC(=O)C(C)(C)C)c(OC(=O)C(C)(C)C)c1` (stereo not drawn) [dipivefrin]?
Answer: solubility at 0.5 h [4]: > 1000 µg/mL; solubility [5]: > 1000 µg/mL

Question: Which results are given for `Cc1oncc1C(=O)Nc1ccc(C(F)(F)F)cc1` [leflunomide]?
Answer: hydrolysis of leflunomide on storage [6]: no hydrolysis; solubility (physchem [7]): 2000 µg/mL (≈ 7400 µM); solubility [8]: 238 µg/mL (≈ 881 µM)
